# What was measured:
# [1] = tested on: Trypanosoma brucei Lister 427 strain; test: Assay for proliferation of kinetoplastid parasite Trypanosoma brucei (Cell Titer Glo); assay type: cell-based; conditions: bloodstream form, 48 hours, read-out: T. brucei EC50
# Text: The proliferation is quantified by the addition of Cell Titer Glo (Promega®) a luminescent cell viability assay that measures the number of viable cells in culture based on the quantification of cellular ATP amount, which is an indicator of metabolically active cells. The following assay illustrates the invention without in any way limiting the scope of the invention. This parasite proliferation assay measures the increase in parasite growth using an assay that measures ATP activity, Cell Titer Glo®.
# Trypanosoma brucei Lister 427 strain is grown in HMI-9 Trypanosome media for T. brucei bloodstream form. 30 μl of HMI-9 media is dispensed into 384 well assay plates. 200 nL of compounds of the invention (in DMSO), including anti-trypanosome controls (Pentamidine and suramin), are then transferred into the assay plates, as well as DMSO alone to serve as a negative control for inhibition. Then 25 μl of a suspension of T. brucei culture in HMI-9 media is dispensed into the assay plates. The final concentration of parasites in culture corresponds to 1.7% of 0.5 uM ATP activity with Cell Titer Glo® in HMI-9 media. The plates are placed in a 37° C. incubator for 48 hours in an atmospheric environment containing 5% CO2. 40 μl of Cell Titer Glo® is dispensed into the plates. The plates are then read for luminescence. The percentage inhibition of 50%, EC50, is calculated for each compound.
# [2] = tested on: Trypanosoma cruzi amastigotes cultured in 3T3 fibroblast cells; test: Assay for proliferation of kinetoplastid parasite Trypanosoma cruzi (beta-galactosidase/CPRG readout); assay type: cell-based; conditions: NIH3T3, 144 h, Tulahuen strain in 3T3 cells, 6 day incubation, read-out: T cruzi EC50
# [3] = tested on: Leishmania donovani axenic amastigote parasites; test: Assay for Leishmania proliferation in vitro (axenic amastigotes, Cell TiterGlo); assay type: cell-based; conditions: 48 h, 2 day incubation, read-out: L. donovani amastigotes EC50
# Procedure, shortened: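 L. donovani axenic amastigotes (9600 per well) are cultured with compound for 2 days at 37° C, 5% CO2 in RPMI-based medium at pH 5.5. Viability is read by CellTiterGlo luminescence, and EC50 is calculated.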
# [4] = tested on: L. donovani HU3 strain in mouse peritoneal macrophages; test: Proliferation of L. donovani in mouse peritoneal macrophages (SybrGreen, high-content imaging); assay type: cell-based; conditions: Leishmania donovani, Peritoneal macrophage, 120 h; infected mouse peritoneal macrophages, 5 days; read-out: L. donavani Macrophage EC50
# Procedure, shortened: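 Peritoneal macrophages from uninfected BALB/c mice were infected for 24 h with spleen-derived amastigotes (9-11 week infected mice), then exposed to compound for 5 days at 37° C. Fixed cells stained with SybrGreen and parasite nuclei counted by high-content imaging; EC50 calculated from inhibition.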
# [5] = cited from earlier work
Structure (SMILES),EC50 [1] [nM],EC50 [2] [nM],EC50 [3] [nM],EC50 [4] [nM],reactive encephalopathy cases that result in death ([5]; of the encephalopathy cases),patients who developed reactive encephalopathy ([5]; patients injected with the drug)
"O=C(Nc1ccc(Cl)c(-c2nc3ncc(NC(=O)C4CC(F)(F)C4)cc3[nH]2)c1)c1ccco1 [Example 57, N-(4-chloro-3-{6-[(3,3-difluorocyclobutane)amido]-1H-imidazo[4,5-b]pyridin-2-yl}phenyl)furan-2-carboxamide]",500,7400,8200,12800,,
"CC(C)(C)OC(=O)NCC1(C(=O)Nc2cnc3nc(-c4cc(NC(=O)c5ccco5)ccc4Cl)[nH]c3c2)CC1 [Example 63, tert-butyl N-{[1-({2-[2-chloro-5-(furan-2-amido)phenyl]-1H-imidazo[4,5-b]pyridin-6-yl}carbamoyl)cyclopropyl]methyl}carbamate]",44,248,460,530,,
"O=C(Nc1ccc(Cl)c(-c2nc3ncc(NC(=O)C4CC4)cc3[nH]2)c1)c1ccc(F)o1 [Example 65, N-(4-chloro-3-{6-cyclopropaneamido-1H-imidazo[4,5-b]pyridin-2-yl}phenyl)-5-fluorofuran-2-carboxamide]",23,1020,1470,570,,
"O=C(CCCN1CCOCC1)Nc1cnc2nc(-c3cc(NC(=O)c4ccc(F)o4)ccc3Cl)[nH]c2c1 [Example 66, N-(4-chloro-3-{6-[4-(morpholin-4-yl)butanamido]-1H-imidazo[4,5-b]pyridin-2-yl}phenyl)-5-fluorofuran-2-carboxamide]",2300,> 20000,> 25000,39200,,
"CC(C)(C)OC(=O)NCCC(=O)Nc1cnc2nc(-c3cc(NC(=O)c4ccc(F)o4)ccc3Cl)[nH]c2c1 [Example 68, tert-butyl N-[2-({2-[2-chloro-5-(5-fluorofuran-2-amido)phenyl]-1H-imidazo[4,5-b]pyridin-6-yl}carbamoyl)ethyl]carbamate]",411,7600,6200,7000,,
"N#CC1(C(=O)Nc2cnc3nc(-c4cc(NC(=O)c5ccc(F)o5)ccc4Cl)[nH]c3c2)CC1 [Example 70, N-(4-chloro-3-{6-[(1-cyanocyclopropane)amido]-1H-imidazo[4,5-b]pyridin-2-yl}phenyl)-5-fluorofuran-2-carboxamide]",32,720,1200,530,,
"O=C(Nc1ccc(Cl)c(-c2nc3ncc(NC(=O)C4(C(F)(F)F)CCC4)cc3[nH]2)c1)c1ccc(F)o1 [Example 71, N-[4-chloro-3-(6-{[1-(trifluoromethyl)cyclobutane]amido}-1H-imidazo[4,5-b]pyridin-2-yl)phenyl]-5-fluorofuran-2-carboxamide]",30,153,1400,263,,
"O=C(CCN1CCOCC1)Nc1cnc2nc(-c3cc(NC(=O)c4ccc(F)o4)ccc3Cl)[nH]c2c1 [Example 72, N-(4-chloro-3-{6-[3-(morpholin-4-yl)propanamido]-1H-imidazo[4,5-b]pyridin-2-yl}phenyl)-5-fluorofuran-2-carboxamide]",5360,> 20000,> 25000,34100,,
"CC(C)OC(=O)Nc1cnc2nc(-c3cccc(NC(=O)c4ccc(F)o4)c3)[nH]c2c1 [Example 78, propan-2-yl N-{2-[3-(5-fluorofuran-2-amido)phenyl]-1H-imidazo[4,5-b]pyridin-6-yl}carbamate]",200,1440,4700,1390,,
Nc1nc(N)nc(Nc2ccc([As]3SCC(CO)S3)cc2)n1 (centres unmarked) [Melarsoprol],,,,,10-70%,3-10%
